Consider 15 compounds from patent US12466781B2, “Thyromimetics” (Autobahn Therapeutics, Inc., priority 2019, dated 2025).

Each structure is given as a SMILES string.

Series [1] is described as follows: Tissue distribution studies (tissue concentrations by LC-MS/MS). The format is in vivo, male C57Bl/6 mice. The conditions noted are these: for brain levels of parent acid Compound 15: PO dosing (0.1 mg/kg) of the amide prodrug, compared to dosing Compound 15 itself, FIG. 1; for AUC(4-hr) Heart / AUC(4-hr) Liver: mice, targeted dose 0.100 mg/kg. The procedure: For tissue concentration studies in male C57Bl/6 mice, test compounds are formulated as NMP/solutol/PBS solution, at a concentration of 0.05 mg/mL and dosed at 2 mL/kg with the targeted dose of 0.100 mg/kg via SC injection or oral dosing. […] The pharmacokinetic parameters are determined by non-compartmental methods using WinNonlin. Area under the drug curves (AUC) values are determined by trapezoidal approximation; tissue-to-tissue ratios are determined by comparing AUC values.

The next series concerns the target T1, TRα (Homo sapiens, UniProt P10827).
T1 construct: expressed in transfected cells; host or cells: HEK293
T1 sequence (P10827 163-410 isoform P10827-2 limits assumed): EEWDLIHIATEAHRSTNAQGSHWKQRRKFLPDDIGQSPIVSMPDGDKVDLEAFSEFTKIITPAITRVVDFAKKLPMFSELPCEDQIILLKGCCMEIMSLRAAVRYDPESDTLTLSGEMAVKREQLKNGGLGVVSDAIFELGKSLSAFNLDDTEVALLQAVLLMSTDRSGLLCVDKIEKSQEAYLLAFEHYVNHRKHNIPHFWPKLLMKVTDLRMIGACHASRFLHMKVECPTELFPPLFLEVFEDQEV
Put plainly: Thyroid-hormone reporter-gene assay (TRα-Gal4 hybrid, luciferase, HEK293). Type of series: cell-based. As to conditions: reporter cells, 24 hr incubation; Table 2; read-out: TRα (EC50). How it is done:
(§1) Compounds were tested for thyroid-hormone receptor activity using TR reporter-gene assays. Reporter cells used in the assays express a TR-receptor hybrid (either TRα or TRβ) in which the native N-terminal DNA binding domain (DBD) has been replaced with that of the yeast Gal4 DBD. The reporter gene, firefly luciferase, is functionally linked to the Gal4 upstream activation sequence (UAS). Both cell lines were derived from human embryonic kidney (HEK293).
(§2) Step 1: A suspension of reporter cells was prepared in cell recovery medium containing 10% charcoal-stripped FBS, and dispensed into assay plates. The plates were pre-incubated for 6 hours in a cell culture incubator (37° C./5% CO2/85% humidity).
(§3) These intermediate stocks were subsequently diluted directly into compound screening medium containing 10% charcoal-stripped FBS to generate “2×-concentration” treatment media (containing 0.2, 0.4 or 0.8% DMSO).
(§4) Step 3: At the end of the pre-incubation period, culture media were discarded from the assay plates, and all wells received 100 μl of compound screening medium. 100 μl of each of the previously prepared “2×-concentration” treatment media were dispensed into duplicate assay wells, thereby achieving the desired final treatment concentrations. The final concentration of DMSO in all assay wells was 0.1, 0.2 or 0.4%. Assay plates were incubated for 24 hr in a cell culture incubator (37° C./5% CO2/85% humidity).
(§5) Step 4: At the 24 h assay endpoint, treatment media were discarded and 100 μl/well of luciferase detection reagent was added. Relative luminometer units (RLUs) were quantified from each assay well.

In another series the target is T2, TRβ (Homo sapiens, UniProt P10828).
T2 construct: expressed in transfected cells; host or cells: HEK293
T2 sequence (P10828 217-461 limits assumed): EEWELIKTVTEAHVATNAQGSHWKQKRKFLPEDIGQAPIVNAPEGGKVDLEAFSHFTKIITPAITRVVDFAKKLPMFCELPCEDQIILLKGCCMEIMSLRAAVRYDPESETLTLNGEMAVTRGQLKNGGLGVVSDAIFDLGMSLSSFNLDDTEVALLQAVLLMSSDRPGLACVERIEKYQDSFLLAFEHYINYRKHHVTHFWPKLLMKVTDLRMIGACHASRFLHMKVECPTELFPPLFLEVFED
The experiment in a line: Thyroid-hormone reporter-gene assay (TRβ-Gal4 hybrid, luciferase, HEK293). The format is cell-based. As to conditions: Table 2; for T3-SI (selectivity index): calculated as EC50 (TRα)/EC50 (TRβ); for EC50: reporter cells, 24 hr incubation, read-out: TRβ (EC50). How it is done: as §1, §2, §3, §4, §5

Consider `CC(C)c1c(O)ccc(Cc2c(Cl)cc(OCC(=O)N(C)C)cc2Cl)c1F` [Compound 17, 2-(3,5-dichloro-4-(2-fluoro-4-hydroxy-3-isopropylbenzyl)phenoxy)-N,N-dimethylacetamide], for which the “brain levels of parent acid Compound 15” value in series [1] is recorded as “increase in the brain concentration of the parent acid”.

As for `CC(C)c1cc(Cc2c(Cl)cc(OCC(=O)O)c(F)c2Cl)ccc1O` [Compound 62, 2-(3,5-dichloro-2-fluoro-4-(4-hydroxy-3-isopropylbenzyl)phenoxy)acetic acid], in series [1], the “AUC(4-hr) Heart” value is 24.4 ng-hr/g of tissue and the “AUC(4-hr) Liver” value is 550 ng-hr/g of tissue.

On to `CNC(=O)COc1cc(Cl)c(Cc2ccc(O)c(C(C)C)c2F)c(Cl)c1` [Compound 16, 2-(3,5-dichloro-4-(2-fluoro-4-hydroxy-3-isopropylbenzyl)phenoxy)-N-methylacetamide], for which, in series [1], the “brain levels of parent acid Compound 15” value is given as “dramatic increase in brain concentration of the parent acid”.

Consider `CCc1cc(OCC(=O)O)cc(Cl)c1Cc1ccc(O)c(C(C)C)c1F` [Compound 43, 2-(3-chloro-5-ethyl-4-(2-fluoro-4-hydroxy-3-isopropylbenzyl)phenoxy)acetic acid], for which the EC50 at TRα and at TRβ was 10 to 100 nM in each case. Moreover, the “T3-SI (selectivity index)” value on TRβ is “++ (3×<T3-SI≤30×)”.

Turning to `CCc1c(F)c(OCC(=O)O)cc(Cl)c1Cc1ccc(O)c(C(C)C)c1` [Compound 69, 2-(5-chloro-3-ethyl-2-fluoro-4-(4-hydroxy-3-isopropylbenzyl)phenoxy)acetic acid], the EC50 on TRα was > 1000 nM; on TRβ it was 100 to 1000 nM. At TRβ, the “T3-SI (selectivity index)” value is “++ (3×<T3-SI≤30×)”.

For `CC(C)c1c(O)ccc(Cc2c(Cl)cc(OCC(=O)O)cc2Cl)c1Cl` [Compound 49, 2-(3,5-dichloro-4-(2-chloro-4-hydroxy-3-isopropylbenzyl)phenoxy)acetic acid], the values for the EC50 at TRα and at TRβ were 100 to 1000 nM and 10 to 100 nM, respectively. In addition, on TRβ, the “T3-SI (selectivity index)” value is “++ (3×<T3-SI≤30×)”.

Consider `CC(C)c1c(O)ccc(Cc2c(Cl)cc(OCC(=O)O)c(F)c2Cl)c1F` [Compound 97, 2-(3,5-dichloro-2-fluoro-4-(2-fluoro-4-hydroxy-3-isopropylbenzyl)phenoxy)acetic acid], for which, on TRα, the EC50 was in the range of 10 to 100 nM. For the same compound, at TRβ, the “T3-SI (selectivity index)” value is “++ (3×<T3-SI≤30×)” and the EC50 was < 10 nM.

In the case of `Cc1cc(OCC(=O)O)cc(Cl)c1Cc1ccc(O)c(C(C)C)c1F` [Compound 36, 2-(3-chloro-4-(2-fluoro-4-hydroxy-3-isopropylbenzyl)-5-methylphenoxy)acetic acid], the EC50 at TRα was in the range of 10 to 100 nM. On TRβ, the “T3-SI (selectivity index)” value is “++ (3×<T3-SI≤30×)” and the EC50 lay in the range of 10 to 100 nM.

On to `CC(c1ccc(F)cc1)c1c(O)ccc(Cc2c(Cl)cc(OCC(=O)O)cc2Cl)c1F` (stereo not drawn) [Compound 30, 2-(3,5-dichloro-4-(2-fluoro-3-(1-(4-fluorophenyl)ethyl)-4-hydroxybenzyl)phenoxy)acetic acid], for which the EC50 at TRα was in the range of 10 to 100 nM. Besides, at TRβ, the “T3-SI (selectivity index)” value is “++ (3×<T3-SI≤30×)” and the EC50 is < 10 nM.

On to `O=C(O)COc1cc(Cl)c(Cc2ccc(O)c(Cc3ccc(F)cc3)c2F)c(Cl)c1F` [Compound 103, 2-(3,5-dichloro-2-fluoro-4-(2-fluoro-3-(4-fluorobenzyl)-4-hydroxybenzyl)phenoxy)acetic acid], for which the EC50 at TRα lay in the range of 10 to 100 nM. Also, at TRβ, the “T3-SI (selectivity index)” value was “+++ (T3-SI>30×)” and the EC50 was in the range of 10 to 100 nM.

Regarding `Cc1cc(OCC(=O)O)cc(C)c1Cc1ccc(O)c(C(C)C)c1F` [Compound 2, 2-(4-(2-fluoro-4-hydroxy-3-isopropylbenzyl)-3,5-dimethylphenoxy)acetic acid], the EC50 on TRα was > 1000 nM. Further, on TRβ, the “T3-SI (selectivity index)” value was “++ (3×<T3-SI≤30×)” and the EC50 was in the range of 100 to 1000 nM.

With `C=C(C)c1cc(OCC(=O)O)c(F)c(Cl)c1Cc1ccc(O)c(C(C)C)c1` [Compound 79, 2-(3-chloro-2-fluoro-4-(4-hydroxy-3-isopropylbenzyl)-5-(prop-1-en-2-yl)phenoxy)acetic acid], at TRα, the EC50 is 100 to 1000 nM. Also, at TRβ, the “T3-SI (selectivity index)” value is “+++ (T3-SI>30×)” and the EC50 lay within 10 to 100 nM.

With `CC(C)c1c(O)ccc(Cc2c(Cl)cc(OCC(=O)O)cc2Cl)c1F` [Compound 15, 2-(3,5-dichloro-4-(2-fluoro-4-hydroxy-3-isopropylbenzyl)phenoxy)acetic acid], in series [1], the “AUC(4-hr) Heart” value is listed as 25.8 ng-hr/g of tissue and the “AUC(4-hr) Liver” value is recorded as 580 ng-hr/g of tissue.

On to `CCC(c1ccc(F)cc1)c1c(O)ccc(Cc2c(Cl)cc(OCC(=O)O)cc2Cl)c1F` (stereo not drawn) [Compound 32, 2-(3,5-dichloro-4-(2-fluoro-3-(1-(4-fluorophenyl)propyl)-4-hydroxybenzyl)phenoxy)acetic acid], for which the EC50 at TRα was 100 to 1000 nM. Also, on TRβ, the “T3-SI (selectivity index)” value is “++ (3×<T3-SI≤30×)” and the EC50 was 10 to 100 nM.

`C=Cc1c(F)c(OCC(=O)O)cc(Cl)c1Cc1ccc(O)c(C(C)C)c1` [Compound 67, 2-(5-chloro-2-fluoro-4-(4-hydroxy-3-isopropylbenzyl)-3-vinylphenoxy)acetic acid]: at TRα, the EC50 was 100 to 1000 nM. In addition, at TRβ, the “T3-SI (selectivity index)” value was “++ (3×<T3-SI≤30×)” and the EC50 lay within 10 to 100 nM.

A word on the EC50: it is the concentration giving half of the maximal effect.
